Assay results published in patent US7589109B2, “Oxyindole derivatives” (Pfizer Inc, priority 2005, dated 2009).

Legend:
[1] = biological target: T1, 5-HT4 receptors in the rat esophagus (Rattus norvegicus, UniProt Q62758); assay: TMM functional assay; settings: 1 μM antagonist added to bath; carbachol-contracted rat TMM relaxed by 5-HT
T1 construct: The remaining inner tube of smooth muscle was known as the TMM; tissue Charles River (animals); host or cells: rat esophagus tunica muscularis mucosae (TMM) smooth muscle, organ bath
Description: More specifically, partial agonist activity can be measured according to the following procedures.
Male SD rats (Charles River) weighing 250-350 g were stunned and then killed by cervical dislocation. The esophagus was dissected from immediately proximal to the stomach (including piece of stomach to mark distal end) up to the level of the trachea and then placed in fresh Krebs' solution.
The outer skeletal muscle layer was removed in one go by peeling it away from the underlying smooth muscle layer using forceps (stomach to tracheal direction). The remaining inner tube of smooth muscle was known as the TMM. This was trimmed to 2 cm from the original ‘stomach-end’ and the rest discarded.
The TMMs were mounted as whole ‘open’ tubes in longitudinal orientation in 5 ml organ baths filled with warm (32° C.) aerated Krebs. Tissues were placed under an initial tension of 750 mg and allowed to equilibrate for 60 minutes. The tissues were re-tensioned twice at 15 minute intervals during the equilibration period. The pump flow rate was set to 2 ml/min during this time.
Following equilibration, the pump was switched off. The tissues were exposed to 1 μM carbachol and contracted and reached a steady contractile plateau within 15 minutes. Tissues were then subject to 1 μM 5-HT (this was to prime the tissues). The tissues relaxed in response to 5-HT fairly rapidly—within 1 minute. […]

T1 sequence (Q62758 whole entry): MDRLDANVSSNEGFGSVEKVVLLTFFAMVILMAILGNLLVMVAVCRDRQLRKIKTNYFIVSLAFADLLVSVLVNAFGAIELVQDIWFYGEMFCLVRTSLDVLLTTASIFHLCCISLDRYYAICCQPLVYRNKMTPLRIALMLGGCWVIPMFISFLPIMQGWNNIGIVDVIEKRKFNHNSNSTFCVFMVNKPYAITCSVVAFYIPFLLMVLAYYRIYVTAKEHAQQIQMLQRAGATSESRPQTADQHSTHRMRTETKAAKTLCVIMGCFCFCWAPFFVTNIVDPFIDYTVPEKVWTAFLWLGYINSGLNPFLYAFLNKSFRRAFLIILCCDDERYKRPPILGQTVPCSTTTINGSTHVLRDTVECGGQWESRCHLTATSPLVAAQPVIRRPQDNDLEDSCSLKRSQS

melting point [°C] | SMILES | reversal of agonist-induced relaxation [1]
146.3 | O=C(NCC1CCN(CC2(C(=O)O)CCOCC2)CC1)N1C(=O)C2(CCCC2)c2ccccc21 | –
164.5 | CC(C)(CN1CCC(CNC(=O)N2C(=O)C(C)(C)c3ccccc32)CC1)C(=O)O | –
160.4 | O=C(NCC1CCN(CC2(C(=O)O)CCCCC2)CC1)N1C(=O)C2(CCCC2)c2ccccc21 | –
193 | CC1(C)C(=O)N(C(=O)NCC2CCN(CC3(C(=O)O)CCC3)CC2)c2cc(F)ccc21 | –
134 | CC(C)(CN1CCC(CNC(=O)N2C(=O)C(C)(C)c3ccc(F)cc32)CC1)C(=O)O | –
213 | CC1(C)C(=O)N(C(=O)NCC2CCN(C(C)(C)C(=O)O)CC2)c2cc(F)ccc21 | –
189.1 | CC(C)(CN1CCC(CNC(=O)N2C(=O)C3(CCCC3)c3ccccc32)CC1)C(=O)O | –
176 | CC(C)(CN1CCC(F)(CNC(=O)N2C(=O)C(C)(C)c3ccc(F)cc32)CC1)C(=O)O | –
156 | CC(C)(CN1CCC(F)(CNC(=O)N2C(=O)C(C)(C)c3ccccc32)CC1)C(=O)O | –
159 | CC1(C)C(=O)N(C(=O)NCC2(O)CCN(CC3(C(=O)O)CCC3)CC2)c2cc(F)ccc21 | –
186.5 | O=C(NCC1CCN(CC2(C(=O)O)CC2)CC1)N1C(=O)C2(CCCC2)c2ccccc21 | –
188.1 | O=C(NCC1CCN(CC2(C(=O)O)CCCC2)CC1)N1C(=O)C2(CCCC2)c2ccccc21 | –
171 | O=C(NCC1CCN(CC2(C(=O)O)CCC2)CC1)N1C(=O)C2(CCCC2)c2ccccc21 | –
150.3 | O=C(NCC1CCN(CC2(C(=O)O)CCC2)CC1)N1C(=O)C2(CCCC2)c2ccc(F)cc21 | –
161.3 | O=C(NCC1CCN(CC2(C(=O)O)CCOCC2)CC1)N1C(=O)C2(CCCC2)c2ccc(F)cc21 | –
170.9 | CC1(C)C(=O)N(C(=O)NCC2CCN(CC3(C(=O)O)CCC3)CC2)c2ccccc21 | –
– | O=C(OCCN1CCCCC1)c1c[nH]c2ccccc12 [SB 203,186, 1H-Indole-3-carboxylic acid, 2-(1-piperidinyl)ethyl ester] | reversed 5-HT induced relaxation
